Test results reported in patent publication US20080262108A1, “Method” (priority 2004, published 2008).

B1: interferon-gamma (protein, UniProt P01579 24-161, looked up)
Interferon gamma: QDPYVKEAENLKKYFNAGHSDVADNGTLFLGILKNWKEESDRKIMQSQIVSFYFKLFKNFKDDQSIQKSVETIKEDMNVKFFNSNKKKRDDFEKLTNYSVTDLNVQRKAIHELIQVMAELSPAAKTGKRKRSQMLFRG
notes: interferon-gamma (Sigma Aldrich) used as stimulus on macrophages

What was measured:
CEL [1] = assay: CEL expression at the mRNA level in treated macrophages (RT-PCR); type: cell-based, human; settings: monocyte-derived macrophages cultured for 7 days, treated for 24 hours; LPS 1 μg/ml, IFN-γ 200 U/ml, oxLDL 50 μg protein/ml; cells from four donors; FIG. 4C
Method: (§1) Macrophage cell culture. Mononuclear cells were isolated through a Ficoll-Hypaque discontinuous gradient (Boyum et al. 1976) from buffy coats obtained from the local blood bank (Sahlgrenska University Hospital, Göteborg, Sweden). The cells were resuspended in RPMI 1640 medium (PM Laboratories GmbH, Pasching, Austria) supplemented with 2 mmol/l glutamine, 2 mmol/l nonessential amino acids, 100 U/ml penicillin, 100 μg/ml streptomycin, and 20 mmol/l sodium pyruvate. Monocytes were obtained by allowing cells to adhere to plastic for 60 min at 37° C. Non-adhered cells were removed by washing with PBS and the adhered monocytes were used immediately or after 4 hours for experiments or left to differentiate into macrophages in supplemented RPMI1640 containing 20% heat-inactivated human serum for up to 9 days. Macrophages were then approximately 95% pure, as judged by flow cytometry. For experiments the cells were incubated for 24 h with supplemented RPMI1640 (pH 7.4) with 1 μg/mL lipopolysaccaride (LPS), interferon-gamma (γ-IFN) 200 U/mL (Sigma Aldrich, Stockholm, Sweden). The viability of cells was >95% in all incubations, as determined by Trypan blue exclusion.
Exposure of macrophages to oxidatively modified LDL. […] Protein concentration of lipoproteins was determined with the BioRad protein assay using γ-globulin as standard. […]

CEL [2] = assay: CEL expression at the protein level in treated macrophages (Western blot); type: cell-based, human; settings: monocyte-derived macrophages cultured for 7 days, treated for 24 hours; LPS 1 μg/ml, IFN-γ 200 U/ml, oxLDL 50 μg protein/ml; cells from four donors; FIG. 4B
Method: as §1, with “For experiments the cells were incubated for 24 h with supplemented RPMI1640 (pH 7.4) with 1 μg/mL lipopolysaccaride (LPS), interferon-gamma (γ-IFN) 200 U/mL (Sigma Aldrich, Stockholm, Sweden).” left out
Exposure of macrophages to oxidatively modified LDL. […] Protein concentration of lipoproteins was determined with the BioRad protein assay using γ-globulin as standard.
Western blot analysis. […] The primary antibodies were detected with POD-conjugated secondary IgG and ECL™ Western Blotting Detection Reagents (Amersham Biosciences), visualized on ECL™ films (Amersham Biosciences).

| Molecule | CEL expression at the mRNA level (CEL [1]) | CEL expression at the protein level (CEL [2]) |
| --- | --- | --- |
| lipopolysaccharide [LPS] | could not detect any consistent increase or decrease in CEL expression | could not detect any consistent increase or decrease in CEL expression |
| B1 | could not detect any consistent increase or decrease in CEL expression | could not detect any consistent increase or decrease in CEL expression |
